According to the OligoGym collection:
“And” between values parts separate entries of the source, which are not always exact repeats. Identical values can stand only once. After the bases stand the sugars from the 5' end (letter, count) and the backbone: PS all phosphorothioate, else s phosphorothioate and o phosphodiester by linkage. Methylation of C is not given here. e = 2'-O-(2-methoxyethyl) (MOE); d = 2'-deoxy (DNA)

Target: DGAT2
Conditions: ASO

Row | Sequence | target mRNA inhibition (HepG2, 2.5 µM) | target mRNA inhibition (HepG2, 10 µM) | target mRNA inhibition (HepG2, 0.12 µM) | target mRNA inhibition (HepG2, 20 µM)
1 | GAGGAGTTCTCGAATATCCC (sugars e5 d10 e5, PS) | 43% | 80% | – | –
2 | GAGGCTCAGGCCTTGACAAC (sugars e5 d10 e5, PS) | – | – | 12% | –
3 | GATATAGTTCCTGGTGGTCA (sugars e5 d10 e5, PS) | – | – | 57% | –
4 | GCAATGTTGCCATCATACTA (sugars e5 d10 e5, PS) | 63% | 88% | – | –
5 | GCACATCTCTTCCATCTCCA (sugars e5 d10 e5, PS) | 74% | 92% | – | –
6 | GCACTCTGTGATGCTCTGGA (sugars e5 d10 e5, PS) | – | 90% and 84% | – | –
7 | GCAGCCTACAAGAGCCTGTT (sugars e5 d10 e5, PS) | 59% | 89% | – | –
8 | GCAGGTTGTGTGTCTTCACC (sugars e5 d10 e5, PS) | – | – | 65% and 73% | –
9 | GCATGAACAAGGGCAAGTCC (sugars e5 d10 e5, PS) | 79% | 89% | – | –
10 | GCATGGAGCTCAGAGACTCA (sugars e2 d13 e5, PS) | – | – | 77% | –
11 | GCATGGAGCTCAGAGACTCA (sugars e3 d14 e3, PS) | – | – | 51% | –
12 | GCATTGCCACTCCCATTCTT (sugars e2 d13 e5, PS) | – | – | 61% | –
13 | GCATTGCCACTCCCATTCTT (sugars e3 d14 e3, PS) | – | – | 85% | –
14 | GCATTTTAACAAGATCCCCA (sugars e5 d10 e5, PS) | – | – | 34% | –
15 | GCCACCCCCATCCTCATCCT (sugars e5 d10 e5, PS) | – | – | 0% | –
16 | GCCAGAGTTATCCTCAATTC (sugars e5 d10 e5, PS) | 89% | 78% | – | –
17 | GCCAGTGTAGCCAGGTAAGG (sugars e5 d10 e5, PS) | – | – | 9% | –
18 | GCCCAATATCTGATATCAAA (sugars e5 d10 e5, PS) | 80% and 69% | 89% and 84% | – | –
19 | GCCCAGTTTCGGACCCACTG (sugars e3 d14 e3, PS) | – | – | 81% | –
20 | GCCGTATGCCTGGGAACTTC (sugars e5 d10 e5, PS) | – | – | 29% | –
21 | GCCTCCATGTACATGGTGTG (sugars e5 d10 e5, PS) | – | – | 63% | –
22 | GCCTGGACAAGTCCTGC (sugars e3 d10 e4, PS) | 68% and 75% | 89% and 97% | – | –
23 | GCGCAGGACCCCGGAGTAGG (sugars e2 d13 e5, PS) | – | – | 72% | –

Row | Sequence | target mRNA inhibition (HepG2, 2.5 µM) | target mRNA inhibition (HepG2, 10 µM) | target mRNA inhibition (HepG2, 0.12 µM) | target mRNA inhibition (HepG2, 20 µM)
24 | GCGCAGGACCCCGGAGTAGG (sugars e5 d10 e5, PS) | – | – | 79% | –
25 | GCTAAGGAAAACTTAGGCAT (sugars e5 d10 e5, PS) | 56% | 89% and 85% | – | –
26 | GCTATAGAATCAGACAGACC (sugars e5 d10 e5, PS) | – | – | 46% | –
27 | GCTCAGAGACTCAGCCGCAC (sugars e2 d13 e5, PS) | 13% | 35% | 82% | 66%
28 | GCTCAGTTCTTCCAACCAGT (sugars e5 d10 e5, PS) | 87% and 86% | 94% and 93% | – | –
29 | GCTCATGAGAAGCTTAGAAG (sugars e5 d10 e5, PS) | 66% | 86% | – | –
30 | GCTGAGAGAGACAATGAGTA (sugars e5 d10 e5, PS) | – | – | 54% | –
31 | GCTGATTACAAGCTGATTCT (sugars e5 d10 e5, PS) | 59% | 76% | – | –
32 | GCTGGATGGGAAAGTAGTCT (sugars e5 d10 e5, PS) | – | – | 22% | –
33 | GCTTACCAACAGTGGTGATG (sugars e5 d10 e5, PS) | – | – | 21% | –
34 | GCTTATCCTTGAGGGTCTCA (sugars e5 d10 e5, PS) | 82% and 77% and 88% | 94% and 89% and 95% | – | –
35 | GCTTCAATAAATACCTTATC (sugars e5 d10 e5, PS) | 84% and 74% | 92% and 97% | – | –
36 | GCTTCTTGGGCATCTGCTAG (sugars e5 d10 e5, PS) | 74% | 82% | – | –
37 | GGACACCTGGAGCTGCGGCC (sugars e5 d10 e5, PS) | 35% | 73% | – | –
38 | GGACAGAGGTTCAACATCCA (sugars e5 d10 e5, PS) | 58% | 89% | – | –
39 | GGAGTTCTCGAATATCCCTA (sugars e5 d10 e5, PS) | 74% and 82% and 85% | 90% and 94% | – | –
40 | GGATGCTGGATCCAGTGCCC (sugars e5 d10 e5, PS) | – | – | 32% | –
41 | GGCAGAGAAACTGGTCCTGC (sugars e5 d10 e5, PS) | 55% | 81% | – | –
42 | GGCAGGGCTTAGAATGGCTA (sugars e5 d10 e5, PS) | – | – | 48% | –
43 | GGCATGGAGCTCAGAGACTC (sugars e5 d10 e5, PS) | 25% | 76% | 77% | 49%
44 | GGCCAAGGCTGAGTCTGTGC (sugars e5 d10 e5, PS) | – | – | 17% | –
45 | GGCCCAACCCCCTCAGGAAG (sugars e5 d10 e5, PS) | – | – | 19% | –
46 | GGCCTTGGCTGCAAGCTCTG (sugars e5 d10 e5, PS) | 52% | 67% | – | –

Row | Sequence | target mRNA inhibition (HepG2, 2.5 µM) | target mRNA inhibition (HepG2, 10 µM) | target mRNA inhibition (HepG2, 0.12 µM) | target mRNA inhibition (HepG2, 20 µM)
47 | GGCTGTCAGAGGCTACTGGC (sugars e5 d10 e5, PS) | 74% | 63% | – | –
48 | GGCTTCACCGTCCCACAGCA (sugars e5 d10 e5, PS) | – | – | 39% | –
49 | GGGCACCAGCCCCCAGGTGT (sugars e5 d10 e5, PS) | – | – | 34% | –
50 | GGGCAGTCCTTTCCCCTGCA (sugars e5 d10 e5, PS) | – | – | 37% | –
51 | GGGCGAAACCAATGTATTTC (sugars e5 d10 e5, PS) | – | – | 24% | –
52 | GGGCTAATACCTACCTCACC (sugars e5 d10 e5, PS) | 53% | 74% | – | –
53 | GGGTGTGTTCCAGTCAAACA (sugars e5 d10 e5, PS) | – | – | 6% | –
54 | GGTAAGGCCGTATGCCTGGG (sugars e3 d14 e3, PS) | – | – | 51% | –
55 | GGTAAGTCCTGATGATCCCC (sugars e5 d10 e5, PS) | 86% and 74% | 94% and 95% | – | –
56 | GGTATCCAAAGATATAGTTC (sugars e5 d10 e5, PS) | – | – | 43% | –
57 | GGTCAGCAGGTTGTGTGTCT (sugars e3 d14 e3, PS) | – | – | 57% | –
58 | GGTCTGGGAACAGCAGC (sugars e3 d10 e4, PS) | 72% and 76% | 79% and 82% | – | –
59 | GGTGACTGCATTCTTGCCAG (sugars e5 d10 e5, PS) | – | – | 25% | –
60 | GGTGGTTGCAATGTTGCCAT (sugars e5 d10 e5, PS) | 90% and 76% | 93% and 90% | – | –
61 | GGTTGCAATGTTGCCATCAT (sugars e5 d10 e5, PS) | 91% and 83% | 93% and 91% | – | –
62 | GGTTGTGTGTCTTCACCAGC (sugars e2 d13 e5, PS) | – | – | 68% | –
63 | GTACTCCCTCAACACAGGCA (sugars e5 d10 e5, PS) | – | – | 72% | –
64 | GTCACCTCTTCCAGGAAGAC (sugars e5 d10 e5, PS) | 83% and 73% and 76% | 92% and 88% | – | –
65 | GTGAAGTTCTATCCCTTGGC (sugars e5 d10 e5, PS) | 58% and 71% | 91% and 93% | – | –
66 | GTGACCTTGGGATAGTCCCT (sugars e5 d10 e5, PS) | 76% and 69% | 92% and 89% | – | –
67 | GTGCTCTGTGGGCTCCTCCA (sugars e5 d10 e5, PS) | 69% | 83% | – | –
68 | GTGGCTCTCTAGATAGGGTG (sugars e5 d10 e5, PS) | 68% | 84% | – | –
69 | GTGGTTGCAATGTTGCCATC (sugars e5 d10 e5, PS) | 83% and 81% and 76% | 92% and 84% and 91% | – | –

Row | Sequence | target mRNA inhibition (HepG2, 2.5 µM) | target mRNA inhibition (HepG2, 10 µM) | target mRNA inhibition (HepG2, 0.12 µM) | target mRNA inhibition (HepG2, 20 µM)
70 | GTGTAGCCAGGTAAGGCCGT (sugars e5 d10 e5, PS) | – | – | 50% | –
71 | GTTAGGATGCTTAACTTCTG (sugars e5 d10 e5, PS) | 51% | 86% | – | –
72 | GTTCTTGGGCCTAAAGGTGA (sugars e5 d10 e5, PS) | – | – | 34% | –
73 | GTTGTGTGTCTTCACCAGCT (sugars e2 d13 e5, PS) | – | – | 65% | –
74 | GTTGTGTGTCTTCACCAGCT (sugars e5 d10 e5, PS) | – | – | 54% and 68% | –
75 | GTTTACTGTGGCACTAAGCT (sugars e5 d10 e5, PS) | 57% | 84% | – | –
76 | GTTTCCTTTGAAATCCAATG (sugars e5 d10 e5, PS) | 69% and 68% | 90% and 81% | – | –
77 | GTTTCGGACCCACTGTGACC (sugars e5 d10 e5, PS) | – | – | 65% | –
78 | GTTTTGGGAACTCATGCATT (sugars e5 d10 e5, PS) | – | – | 50% | –
79 | TAAATAACCCACAGACACCC (sugars e5 d10 e5, PS) | – | – | 6% | –
80 | TAAGCCTCGGTGTCCTCTCC (sugars e5 d10 e5, PS) | 90% | 73% | – | –
81 | TACTGACTTTTTCCTTCTTA (sugars e5 d10 e5, PS) | – | – | 39% | –
82 | TAGCCAGGTAAGGCCGTATG (sugars e3 d14 e3, PS) | – | – | 49% | –
83 | TAGTTCCTGGTGGTCAGCAG (sugars e5 d10 e5, PS) | – | – | 48% | –
84 | TATAGTTCCTGGTGGTCAGC (sugars e5 d10 e5, PS) | – | – | 56% | –
85 | TATCCAAAGATATAGTTCCT (sugars e5 d10 e5, PS) | – | – | 13% | –
86 | TATTTCTGGAACTTCTTCTG (sugars e5 d10 e5, PS) | – | – | 22% | –
87 | TCACAGAATTATCAGCAGTA (sugars e5 d10 e5, PS) | 80% and 61% | 93% and 84% | – | –
88 | TCACCAGATTGTTGTGGGAA (sugars e5 d10 e5, PS) | 69% | 78% | – | –
89 | TCACTTGCTTGAGGTCAGGG (sugars e5 d10 e5, PS) | 71% and 79% | 80% and 89% | – | –
90 | TCAGAAGGCCAGGCCCCTTC (sugars e5 d10 e5, PS) | – | – | 20% | –
91 | TCAGCCACCCAAGAAAAACC (sugars e5 d10 e5, PS) | – | – | 0% | –
